Measurements from patent US11040963B2 (priority 2017, dated 2021).

How the values were obtained:
[1] = tested on: H1N1 A/New Caledonia/20/99; experiment: microbe, parasite or virus in culture; format: cell-based, influenza A virus; settings: for EC50: Influenza A virus, H1N1, MDCK, 96 h, read-out: Virus neutralization assay (VNA), pEC50 H1N1 A/New Caledonia/20/99 (converted)
H1N1 A/California/07/09 = experiment: microbe, parasite or virus in culture; format: cell-based, influenza A virus; settings: for EC50: Influenza A virus, H1N1, MDCK, 96 h, read-out: Virus neutralization assay (VNA), pEC50 H1N1 A/California/07/09 (converted)
in vitro = settings: dog, Cytotoxicity (pCC50) MDCK
[2] = target: HA H1 A/New Caledonia/20/99 (Influenza A virus (A/New Caledonia/20/1999(H1N1)), UniProt Q6WG00); experiment: biochemical; settings: Competition binding (AlphaLISA), pIC50 H1 A/New Caledonia/20/99
H5N1 A/Vietnam/1203/04 = experiment: microbe, parasite or virus in culture; format: cell-based, influenza A virus; settings: 96 h, average of repeats; for EC50: Influenza A virus, H5N1, MDCK, read-out: Virus neutralization assay (VNA), pEC50 H5N1 A/Vietnam/1203/04, MDCK cells, 96 h, CPE by ATPlite (converted); for Virus neutralization assay (VNA), pEC50 H5N1 A/Vietnam/1203/04: MDCK cells, CPE by ATPlite
H1N1 A/PR/8/34-MA = experiment: microbe, parasite or virus in culture; format: cell-based, influenza A virus; settings: for EC50: Influenza A virus, MDCK, 96 h, read-out: Virus neutralization assay (VNA), pEC50 H1N1 A/PR/8/34-MA (converted)
[3] = target: HA H1 A/California/07/09 (Influenza A virus (A/California/07/2009(H1N1)), UniProt C3W5X2); experiment: biochemical; settings: Competition binding (AlphaLISA), pIC50 H1 A/California/07/09
[4] = target: HA H5 A/Vietnam/1203/04 (Influenza A virus (A/Vietnam/1203/2004(H5N1)), UniProt Q5EP31); experiment: biochemical; settings: Competition binding (AlphaLISA), pIC50 H5 A/Vietnam/1203/04
MDCK cells = settings: dog

With `COC(=O)[C@@H](c1ccccc1)N1CCN(C(=O)c2cccc(-c3nc4ccc(OC)cc4s3)c2)CC1` [Example 19] the EC50 [1] was 100 nM, the EC50 (H1N1 A/California/07/09) was 251 nM and the CC50 (in vitro) was over 50100 nM. For the same molecule, the IC50 [2] was 15.8 nM, the EC50 (H5N1 A/Vietnam/1203/04) was 1580 nM and the EC50 (H1N1 A/PR/8/34-MA) was 126 nM. The IC50 [3] was 20 nM and the IC50 [4] was 200 nM.

With `COC(=O)[C@@H](c1ccccc1)N1CCN(C(=O)c2cccc(-c3nc4ccc(OC)cc4s3)c2)CC1` [Example 22] the “Cytotoxicity (pCC50) MDCK” value (MDCK cells) was under 4.3, the “Virus neutralization assay (VNA), pEC50 H1N1 A/New Caledonia/20/99” value [1] was 6.9 and the “Virus neutralization assay (VNA), pEC50 H1N1 A/California/07/09” value (H1N1 A/California/07/09) was 6.8. For the same molecule, the IC50 [2] was 12.6 nM, the “Virus neutralization assay (VNA), pEC50 H5N1 A/Vietnam/1203/04” value (H5N1 A/Vietnam/1203/04) was 5.8 and the “Virus neutralization assay (VNA), pEC50 H1N1 A/PR/8/34-MA” value (H1N1 A/PR/8/34-MA) was 6.9. For the same molecule, the IC50 [3] was 15.8 nM.

For `Cc1nnc([C@@H](c2ccccc2)N2CCN(C(=O)c3cccc(-c4nc5cc(C(F)(F)F)ccc5o4)c3)CC2)o1` [Example 27], the “Cytotoxicity (pCC50) MDCK” value (MDCK cells) was under 4.3, the EC50 [1] was 316 nM and the EC50 (H1N1 A/California/07/09) was 316 nM. For the same molecule, the IC50 [2] was 50.1 nM, the EC50 (H5N1 A/Vietnam/1203/04) was 39800 nM and the IC50 [3] was 31.6 nM. For the same molecule, the IC50 [4] was 1260 nM.

With `COC(=O)C(c1ccccc1)N1CCN(C(=O)c2cccc(-c3nc4ccc(OC)cc4s3)c2)CC1` (stereo not shown) [Example 29] the EC50 [1] was 158 nM, the EC50 (H1N1 A/California/07/09) was 251 nM and the CC50 (in vitro) was 39800 nM. The IC50 [2] was 15.8 nM, the EC50 (H5N1 A/Vietnam/1203/04) was 3980 nM and the EC50 (H1N1 A/PR/8/34-MA) was 126 nM. It also gave an IC50 [3] of 25.1 nM and an IC50 [4] of 251 nM.

Molecule `COC(=O)[C@@H](c1ccccc1)C1CCN(C(=O)c2cccc(-c3nc4ccc(OC)cc4s3)c2)CC1` [Example 65] has an EC50 [1] of 501 nM, an EC50 (H1N1 A/California/07/09) of 1000 nM and a CC50 (in vitro) of 39800 nM. The IC50 [2] was 50.1 nM, the EC50 (H5N1 A/Vietnam/1203/04) was 25100 nM and the EC50 (H1N1 A/PR/8/34-MA) was 631 nM. It also gave an IC50 [3] of 100 nM and an IC50 [4] of 631 nM.

In the case of `Cc1nnc([C@@H](c2ccccc2)N2CCN(C(=O)c3cccc(-c4nc5cc(C(F)(F)F)ccc5o4)c3)CC2)o1` [Example 69], the “Cytotoxicity (pCC50) MDCK” value (MDCK cells) is reported as 5.0, the “Virus neutralization assay (VNA), pEC50 H1N1 A/New Caledonia/20/99” value [1] is reported as 6.2 and the “Virus neutralization assay (VNA), pEC50 H1N1 A/California/07/09” value (H1N1 A/California/07/09) is reported as 6.4. The IC50 [2] was 79.4 nM, the “Virus neutralization assay (VNA), pEC50 H5N1 A/Vietnam/1203/04” value (H5N1 A/Vietnam/1203/04) was 4.5 and the IC50 [3] was 63.1 nM. For the same molecule, the IC50 [4] was 2510 nM.

For `COC(=O)C(c1ccccc1)N1CCN(C(=O)c2cccc(-c3ccc(OC)cc3)c2)CC1` (stereo not shown) [Example 83], the “Virus neutralization assay (VNA), pEC50 H1N1 A/New Caledonia/20/99” value [1] was 6.2, the “Virus neutralization assay (VNA), pEC50 H1N1 A/California/07/09” value (H1N1 A/California/07/09) was 5.7 and the CC50 (in vitro) was 39800 nM. For the same molecule, the IC50 [2] was 200 nM, the “Virus neutralization assay (VNA), pEC50 H5N1 A/Vietnam/1203/04” value (H5N1 A/Vietnam/1203/04) was 4.8 and the EC50 (H1N1 A/PR/8/34-MA) was 1000 nM. It also gave an IC50 [3] of 398 nM and an IC50 [4] of 2510 nM.

Work on `O=C(c1cccc(-c2cc3ccccc3o2)c1)N1CCN(Cc2ccccc2)CC1` [Example 85] yielded an EC50 [1] of 631 nM, an EC50 (H1N1 A/California/07/09) of 2510 nM and a CC50 (in vitro) of 10000 nM. It also gave an IC50 [2] of 316 nM, an EC50 (H5N1 A/Vietnam/1203/04) of 12600 nM and an EC50 (H1N1 A/PR/8/34-MA) of 501 nM. The IC50 [3] was 631 nM and the IC50 [4] was 3160 nM.

For `COC(=O)C(c1ccccc1)C1CCN(C(=O)c2cccc(-c3nc4ccc(OC)cc4s3)c2)CC1` (stereo not shown) [Example 105], the EC50 [1] was 1000 nM, the EC50 (H1N1 A/California/07/09) was 3160 nM and the CC50 (in vitro) was over 50100 nM. It also gave an IC50 [2] of 100 nM, an EC50 (H5N1 A/Vietnam/1203/04) of 12600 nM and an EC50 (H1N1 A/PR/8/34-MA) of 2000 nM. The IC50 [3] was 126 nM and the IC50 [4] was 2000 nM.

For `COc1ccc2nc(-c3cccc(C(=O)N4CCN(C(C(C)=O)c5ccccc5)CC4)c3)sc2c1` (stereo not shown) [Example 106], the “Cytotoxicity (pCC50) MDCK” value (MDCK cells) was 4.4, the EC50 [1] was 1000 nM and the EC50 (H1N1 A/California/07/09) was 3160 nM. The IC50 [2] was 200 nM, the EC50 (H5N1 A/Vietnam/1203/04) was over 50100 nM and the IC50 [3] was 398 nM. The IC50 [4] was 2000 nM.

With `CCOC(=O)[C@@H](c1ccccc1)N1CCN(C(=O)c2cccc(-c3ccc(OC)cc3)c2)CC1` [Example 114] the EC50 [1] was 1260 nM, the EC50 (H1N1 A/California/07/09) was 2000 nM and the CC50 (in vitro) was 3980 nM. It also gave an IC50 [2] of 126 nM, an EC50 (H5N1 A/Vietnam/1203/04) of 31600 nM and an EC50 (H1N1 A/PR/8/34-MA) of 2510 nM. For the same molecule, the IC50 [3] was 100 nM and the IC50 [4] was 398 nM.

With `CCOC(=O)C(c1ccccc1)N1CCN(C(=O)c2cccc(-c3ccc(OC)cc3)c2)CC1` (stereo not shown) [Example 120] the EC50 [1] was 1580 nM, the EC50 (H1N1 A/California/07/09) was 1260 nM and the CC50 (in vitro) was over 50100 nM. The IC50 [2] was 251 nM, the EC50 (H5N1 A/Vietnam/1203/04) was over 50100 nM and the EC50 (H1N1 A/PR/8/34-MA) was 1000 nM. For the same molecule, the IC50 [3] was 251 nM and the IC50 [4] was 2510 nM.

Work on `COC(=O)C(c1ccccc1)C1CCN(C(=O)c2cccc(-c3nc4ccc(OC)cc4[nH]3)c2)CC1` (stereo not shown) [Example 123] yielded an EC50 [1] of 1580 nM, an EC50 (H1N1 A/California/07/09) of 5010 nM and a CC50 (in vitro) of over 50100 nM. The IC50 [2] was 501 nM, the EC50 (H5N1 A/Vietnam/1203/04) was 50100 nM and the EC50 (H1N1 A/PR/8/34-MA) was 2510 nM. It also gave an IC50 [3] of 631 nM and an IC50 [4] of 12600 nM.

For `COC(=O)C(c1ccccc1)N1CCN(C(=O)c2cccc(-c3ccc(OC)cc3)c2)CC1` (stereo not shown) [Example 128], the “Cytotoxicity (pCC50) MDCK” value (MDCK cells) was under 4.3, the “Virus neutralization assay (VNA), pEC50 H1N1 A/New Caledonia/20/99” value [1] was 5.7 and the EC50 (H1N1 A/California/07/09) was 3160 nM. The IC50 [2] was 158 nM, the EC50 (H5N1 A/Vietnam/1203/04) was 10000 nM and the IC50 [3] was 251 nM. It also gave an IC50 [4] of 3160 nM.

Molecule `COC(=O)C(c1ccccc1)C1CCN(C(=O)c2cccc(-c3ccc(OC)cc3)c2)CC1` (stereo not shown) [Example 130] has an EC50 [1] of 2000 nM, an EC50 (H1N1 A/California/07/09) of 15800 nM and a CC50 (in vitro) of 39800 nM. The IC50 [2] was 631 nM, the EC50 (H5N1 A/Vietnam/1203/04) was 39800 nM and the EC50 (H1N1 A/PR/8/34-MA) was 12600 nM. The IC50 [3] was 1000 nM and the IC50 [4] was 10000 nM.
